Among the data in patent US11078197B2, “5-membered and bicyclic heterocyclic amides as inhibitors of rock” (BRISTOL-MYERS SQUIBB COMPANY, priority 2017, dated 2021) are IC50 values, retold here.

In the experiment the target is ROCK2 (Homo sapiens (Human), UniProt O75116). Kind of experiment: ROCK2 assay (peptide phosphorylation, LABCHIP 3000 Reader). Format: biochemical. The conditions noted are these: 5 μM ATP, 1.5 μM peptide substrate, dose-response. The protocol:
After incubation, the reaction was terminated by the addition of EDTA and the phosphorylated and non-phosphorylated peptides separated using a LABCHIP®3000 Reader (Caliper Life Sciences). […] Compounds were tested in dose-response format, and the inhibition of kinase activity was calculated at each concentration of compound. […] Representative Examples were tested in the ROCK2 assay described above and found having ROCK2 inhibitory activity.

ROCK2, sequence (O75116 whole entry, species assumed): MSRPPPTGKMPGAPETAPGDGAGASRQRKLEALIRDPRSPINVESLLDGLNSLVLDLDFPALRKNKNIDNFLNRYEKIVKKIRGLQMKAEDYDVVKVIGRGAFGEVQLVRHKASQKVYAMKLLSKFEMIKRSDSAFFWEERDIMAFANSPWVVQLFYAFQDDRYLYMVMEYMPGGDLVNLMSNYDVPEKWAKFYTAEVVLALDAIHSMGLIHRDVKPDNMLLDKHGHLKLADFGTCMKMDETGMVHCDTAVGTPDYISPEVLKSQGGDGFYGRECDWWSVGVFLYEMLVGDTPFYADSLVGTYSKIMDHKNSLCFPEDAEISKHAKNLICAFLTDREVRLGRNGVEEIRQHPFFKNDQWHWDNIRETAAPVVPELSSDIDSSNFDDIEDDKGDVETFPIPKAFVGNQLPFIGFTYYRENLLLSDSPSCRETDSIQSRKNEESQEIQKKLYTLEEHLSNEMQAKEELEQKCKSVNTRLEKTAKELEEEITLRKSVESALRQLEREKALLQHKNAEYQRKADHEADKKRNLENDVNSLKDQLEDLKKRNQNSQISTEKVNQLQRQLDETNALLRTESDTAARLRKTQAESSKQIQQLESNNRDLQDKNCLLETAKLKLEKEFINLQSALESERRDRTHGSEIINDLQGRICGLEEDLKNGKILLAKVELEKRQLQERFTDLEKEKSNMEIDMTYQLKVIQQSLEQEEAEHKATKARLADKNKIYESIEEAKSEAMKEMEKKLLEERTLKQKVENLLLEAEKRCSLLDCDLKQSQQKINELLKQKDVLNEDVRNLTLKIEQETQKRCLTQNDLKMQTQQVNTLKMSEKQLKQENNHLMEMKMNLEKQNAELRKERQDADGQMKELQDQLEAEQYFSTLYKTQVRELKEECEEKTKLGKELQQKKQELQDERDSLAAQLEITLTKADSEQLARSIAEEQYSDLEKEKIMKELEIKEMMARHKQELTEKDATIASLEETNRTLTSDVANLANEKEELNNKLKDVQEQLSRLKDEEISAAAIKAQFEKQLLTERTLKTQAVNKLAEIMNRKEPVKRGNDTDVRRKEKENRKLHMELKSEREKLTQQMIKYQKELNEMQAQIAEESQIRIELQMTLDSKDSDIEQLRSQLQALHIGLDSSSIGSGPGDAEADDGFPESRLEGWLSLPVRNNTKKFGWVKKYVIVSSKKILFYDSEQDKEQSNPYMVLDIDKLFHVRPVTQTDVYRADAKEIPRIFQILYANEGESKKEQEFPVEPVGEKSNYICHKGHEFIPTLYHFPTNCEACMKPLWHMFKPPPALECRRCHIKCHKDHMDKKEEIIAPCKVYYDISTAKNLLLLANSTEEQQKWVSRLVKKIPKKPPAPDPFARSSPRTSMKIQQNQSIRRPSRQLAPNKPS

Take `NC(=O)c1cc2c(nc1O[C@H]1C[C@]3(C1)C[C@H](N1C(=O)CN(Cc4ccccc4)CC1=O)C3)CCOC2` (some centres unmarked) [Example 13]: the half-maximal inhibitory concentration (IC50) – broadly, the point on the concentration scale where inhibition reaches its midpoint – was 576 nM. That is a sub-micromolar value.
Under `Cc1c(C(=O)N[C@H]2C[C@]3(C2)C[C@H](Oc2nc4c(cnn4C)cc2C(N)=O)C3)cnn1-c1ccc(-c2cnn(CC(F)F)c2)cc1` (some centres unmarked) [Example 158, 1-{4-[1-(2,2-difluoroethyl)-1H-pyrazol-4-yl]phenyl}-5-methyl-N-[(4s)-6-({5-carbamoyl-1-methyl-1H-pyrazolo[3,4-b]pyridin-6-yl}oxy)spiro[3.3]heptan-2-yl]-1H-pyrazole-4-carboxamide] stands 4.6 nM; under `Cc1c(C(=O)N[C@H]2C[C@]3(C2)C[C@H](Oc2nn4cc(F)ccc4c2C(N)=O)C3)cnn1-c1ccc(C#N)cc1` (some centres unmarked) [Example 129, 1-(4-cyanophenyl)-5-methyl-N-[(4s)-6-({3-carbamoyl-6-fluoropyrazolo[1,5-a]pyridin-2-yl}oxy)spiro[3.3]heptan-2-yl]-1H-pyrazole-4-carboxamide], 702 nM; under `CC(C)(O)COc1ccc2c(C(=O)NC3CC4(C3)CC(Oc3nc5c(cc3C(N)=O)CCCN5)C4)cnn2c1C1CC1` [Example 8, 2-(((aR)-6-(7-Cyclopropyl-6-(2-hydroxy-2-methylpropoxy)pyrazolo[1,5-a]pyridine-3-carboxamido)spiro[3.3]heptan-2-yl)oxy)-5,6,7,8-tetrahydro-1,8-naphthyridine-3-carboxamide], 5.4 nM.
Under `CC(C)(O)COc1ccc2c(C(=O)N[C@H]3CC4(C3)C[C@H](Oc3c(C(N)=O)cnn3CCCN)C4)cnn2c1C1CC1` (stereo partly drawn) [Example 28, 1-(3-aminopropyl)-5-({(aR)-6-[7-cyclopropyl-6-(2-hydroxy-2-methylpropoxy)pyrazolo [1,5-a]pyridine-3-amido]spiro[3.3]heptan-2-yl}oxy)-1H-pyrazole-4-carboxamide] stands 551 nM; under `NC(=O)c1sc(C2CC2)nc1O[C@H]1CC2(C[C@H](NC(=O)c3cnn4cc(OCC(F)F)ccc34)C2)C1` (stereo partly drawn) [Example 11, 2-cyclopropyl-4-(((aR)-6-(6-(2,2-difluoroethoxy)pyrazolo[1,5-a]pyridine-3-carboxamido)spiro[3.3]heptan-2-yl)oxy)thiazole-5-carboxamide], 23.3 nM.
Consider `Cc1c(C(=O)N[C@H]2C[C@]3(C2)C[C@H](Oc2nc(C4CC4)sc2C(N)=O)C3)cnn1-c1ccccc1` (stereo partly drawn) [Example 68, 2-cyclopropyl-4-{[(aR)-6-(5-methyl-1-phenyl-1H-pyrazole-4-amido)spiro[3.3]heptan-2-yl]oxy}-1,3-thiazole-5-carboxamide], for which the concentration for half-maximal inhibition (IC50) is 108 nM.
As for `NC(=O)c1sc(C2CC2)nc1O[C@H]1C[C@]2(C1)C[C@H](N1C(=O)NC(Cc3cccnc3)C1=O)C2` (stereo partly drawn) [Example 107, 2-cyclopropyl-4-{[(aR)-6-{2,5-dioxo-4-[(pyridin-3-yl)methyl]imidazolidin-1-yl}spiro[3.3]heptan-2-yl]oxy}-1,3-thiazole-5-carboxamide], the figure is 1830 nM.
As for `CC(C)(O)COc1ccc2c(C(=O)N[C@H]3C[C@]4(C3)C[C@H](Oc3nc(-c5ccccc5)sc3C(N)=O)C4)cnn2c1C1CC1` (stereo partly drawn) [Example 18, 4-({(aR)-6-[7-cyclopropyl-6-(2-hydroxy-2-methylpropoxy)pyrazolo [1,5-a]pyridine-3-amido]spiro[3.3]heptan-2-yl}oxy)-2-phenyl-1,3-thiazole-5-carboxamide], the figure is 13.4 nM; as for `Cc1c(C(=O)N[C@H]2C[C@]3(C2)C[C@H](Oc2nn4ccccc4c2C(N)=O)C3)cnn1-c1ccc(C#N)cc1` (some centres unmarked) [Example 118, 1-(4-cyanophenyl)-5-methyl-N-[(4s)-6-({3-carbamoylpyrazolo[1,5-a]pyridin-2-yl}oxy)spiro[3.3]heptan-2-yl]-1H-pyrazole-4-carboxamide], 639 nM.
As for `Cn1ncc2cc(C(N)=O)c(O[C@H]3C[C@@]4(C[C@H](NC(=O)c5cnn6c(C7CC7)c(OCC(C)(C)O)ccc56)C4)C3)nc21` (some centres unmarked) [Example 147, 7-cyclopropyl-6-(2-hydroxy-2-methylpropoxy)-N-[(4s)-6-({5-carbamoyl-1-methyl-1H-pyrazolo[3,4-b]pyridin-6-yl}oxy)spiro[3.3]heptan-2-yl]pyrazolo[1,5-a]pyridine-3-carboxamide], the figure is 2.9 nM; as for `N#Cc1cc(C(=O)N[C@H]2C[C@]3(C2)C[C@H](Oc2nc4c(cc2C(N)=O)COCC4)C3)ccc1Br` (stereo partly drawn) [Example 92, 2-{[(aR)-6-(4-bromo-3-cyanobenzamido)spiro[3.3]heptan-2-yl]oxy}-5H,7H,8H-pyrano[4,3-b]pyridine-3-carboxamide], 191 nM.
As for `NC(=O)c1sc(C2CC2)nc1O[C@H]1CC2(C[C@H](NC(=O)c3cnn4cc(OCC(F)(F)F)ccc34)C2)C1` (stereo partly drawn) [Example 62, 2-cyclopropyl-4-{[(aR)-6-[6-(2,2,2-trifluoroethoxy)pyrazolo [1,5-a]pyridine-3-amido]spiro[3.3]heptan-2-yl]oxy}-1,3-thiazole-5-carboxamide], the concentration for half-maximal inhibition (IC50) turned out to be 11.6 nM.
As for `[H][C@]1(Oc2nc(C)sc2C(N)=O)C[C@]2(C[C@@H](NC(=O)c3cnn(-c4ccc(Cl)cc4)c3C)C2)C1` (stereo partly drawn) [Example 1, 4-(((aR)-6-(1-(4-Chlorophenyl)-5-methyl-1H-pyrazole-4-carboxamido)spiro[3.3]heptan-2-yl)oxy)-2-methylthiazole-5-carboxamide], the figure is 42.7 nM.
Regarding `N#Cc1cccc(C(=O)N[C@H]2C[C@]3(C2)C[C@H](Oc2nc4c(cc2C(N)=O)COCC4)C3)c1` (stereo partly drawn) [Example 85, 2-{[(aR)-6-(3-cyanobenzamido)spiro[3.3]heptan-2-yl]oxy}-5H,7H,8H-pyrano[4,3-b]pyridine-3-carboxamide], the half-inhibitory concentration (IC50) was 144 nM.
For `Cc1ccn2nc(O[C@H]3C[C@@]4(C[C@H](NC(=O)c5nn(C(F)F)c6cc(OCC(C)(C)O)ccc56)C4)C3)c(C(N)=O)c2c1` (some centres unmarked) [Example 132, 1-(difluroomethyl)-6-(2-hydroxy-2-methylpropoxy)-N-[(4s)-6-({3-carbamoyl-5-methylpyrazolo[1,5-a]pyridin-2-yl}oxy)spiro[3.3]heptan-2-yl]-1H-indazole-3-carboxamide], 223 nM corresponded to half-maximal inhibition (IC50).
As for `Cc1c(C(=O)N[C@H]2C[C@]3(C2)C[C@H](Oc2nn(-c4ccccc4)cc2C(N)=O)C3)cnn1-c1ccc(Cl)cc1` (stereo partly drawn) [Example 49, 1-phenyl-3-{[(aR)-6-[1-(4-chlorophenyl)-5-methyl-1H-pyrazole-4-amido]spiro[3.3]heptan-2-yl]oxy}-1H-pyrazole-4-carboxainide], the figure is 450 nM.
As for `NC(=O)c1cc2sccc2nc1OC1CC2(CC(NC(=O)C3CCC(C(F)(F)F)CC3)C2)C1` (centres unmarked) [Example 9, 5-((6-(4-(Trifluoromethyl)cyclohexane-1-carboxamido)spiro[3.3]heptan-2-yl)oxy)thieno[3,2-b]pyridine-6-carboxamide], the figure is 349 nM; as for `Cc1c(C(=O)N[C@H]2C[C@]3(C2)C[C@H](Oc2nn(-c4ccccc4)cc2C(N)=O)C3)cnn1-c1ccc(C#N)cc1` (stereo partly drawn) [Example 38, 3-({(aR)-6-[1-(4-cyanophenyl)-5-methyl-1H-pyrazole-4-amido]spiro[3.3]heptan-2-yl}oxy)-1-phenyl-1H-pyrazole-4-carboxamide], 426 nM.
The compound `COc1ccc(C(=O)N[C@H]2C[C@]3(C2)C[C@H](Oc2nc4c(cc2C(N)=O)COCC4)C3)cc1C#N` (stereo partly drawn) [Example 90, 2-{[(aR)-6-(3-cyano-4-methoxybenzamido)spiro[3.3]heptan-2-yl]oxy}-5H,7H,8H-pyrano[4,3-b]pyridine-3-carboxamide] displayed a concentration for half-maximal inhibition (IC50) of 114 nM.
